ChEMBL document CHEMBL3044790, “Evaluation of antiasthmatic activity of 7,8,9,10-tetrahydroazepino[2,1-b]quinazolin-12(6H)-one in combination with ambroxol in Guinea pigs” (2012)
Active and inactive are the calls of the source. No cut-off for these calls is given here.

Key:
[1] = test system: Cavia porcellus; test: Antiasthmatic activity in Cavia porcellus Hartley (guinea pig) ovalbumin-induced hyperresponsive model assessed as cough latency at 50 mg/kg, ip qd administered for 7 days challenged 30 min post last dose on day 7 (reference value: 4.75 +/- 0.86 min); assay type: functional; settings: route intraperitoneal
[2] = test system: Cavia porcellus; test: Antiasthmatic activity in Cavia porcellus Hartley (guinea pig) ovalbumin-induced hyperresponsive model assessed as reduction in eosinophil count in BAL at 100 mg/kg, ip qd administered for 7 days challenged 30 min post last dose on day 7; assay type: functional, organism-based; design: dose 100 mg/kg
[3] = test system: Cavia porcellus; test: Antiasthmatic activity in Cavia porcellus Hartley (guinea pig) ovalbumin-induced hyperresponsive model assessed as reduction in TBARS level in BAL at 100 mg/kg, ip qd administered for 7 days challenged 30 min post last dose on day 7 (reference value: 0.471 +/- 0.08 nmol/ml); assay type: functional; settings: route intraperitoneal
[4] = test system: Cavia porcellus; test: (§1) Antiasthmatic activity in Cavia porcellus Hartley (guinea pig) ovalbumin-induced hyperresponsive model assessed as decrease in nitrate/nitrite level in BAL at 100 mg/kg, ip qd administered for 7 days challenged 30 min post last dose on day 7 by griess assay (reference value: 70.16 +/- 6.20 umol/ml); assay type: functional; settings: route intraperitoneal
[5] = test system: Cavia porcellus; test: Antiasthmatic activity in Cavia porcellus Hartley (guinea pig) ovalbumin-induced hyperresponsive model assessed as increase in GSH level in BAL at 100 mg/kg, ip qd administered for 7 days challenged 30 min post last dose on day 7 (reference value: 28.95 +/- 3.66 umol/ml); assay type: functional; settings: route intraperitoneal
[6] = test system: Cavia porcellus; test: Antiasthmatic activity in Cavia porcellus Hartley (guinea pig) ovalbumin-induced hyperresponsive model assessed as reduction in total lymphocyte count in BAL at 100 mg/kg, ip qd administered for 7 days challenged 30 min post last dose on day 7; assay type: functional, organism-based; design: dose 100 mg/kg
[7] = test system: Cavia porcellus; test: as §1, with “per gram of lung tissue” for “BAL”, “195.55” for “70.16”, “8.34 umol/g)” for “6.20 umol/ml)”; assay type: functional; settings: route intraperitoneal
[8] = test system: Cavia porcellus; test: Antiasthmatic activity in Cavia porcellus Hartley (guinea pig) ovalbumin-induced hyperresponsive model assessed as cough latency at 100 mg/kg, ip qd administered for 7 days challenged 30 min post last dose on day 7 (reference value: 4.75 +/- 0.86 min); assay type: functional; settings: route intraperitoneal
[9] = test system: Cavia porcellus; test: Antiasthmatic activity in Cavia porcellus Hartley (guinea pig) ovalbumin-induced hyperresponsive model assessed as reduction in total lymphocyte count in BAL at 50 mg/kg, ip qd administered for 7 days challenged 30 min post last dose on day 7; assay type: functional, organism-based; design: dose 50 mg/kg
[10] = test system: Cavia porcellus; test: Antiasthmatic activity in Cavia porcellus Hartley (guinea pig) ovalbumin-induced hyperresponsive model assessed as reduction in eosinophil count in BAL at 50 mg/kg, ip qd administered for 7 days challenged 30 min post last dose on day 7; assay type: functional, organism-based; design: dose 50 mg/kg
[11] = test system: Cavia porcellus; test: Antiasthmatic activity in Cavia porcellus Hartley (guinea pig) ovalbumin-induced hyperresponsive model assessed as increase in GSH level in per gram of lung tissue at 100 mg/kg, ip qd administered for 7 days challenged 30 min post last dose on day 7 (reference value: 15.175 +/- 1.809 umol/g); assay type: functional; settings: route intraperitoneal
[12] = test system: Cavia porcellus; test: Antiasthmatic activity in Cavia porcellus Hartley (guinea pig) ovalbumin-induced hyperresponsive model assessed as reduction in TBARS level in per gram of lung tissue at 100 mg/kg, ip qd administered for 7 days challenged 30 min post last dose on day 7 (reference value: 0.291 +/- 0.039 nmol/g); assay type: functional; settings: route intraperitoneal
[13] = test system: Cavia porcellus; test: Antiasthmatic activity in Cavia porcellus Hartley (guinea pig) ovalbumin-induced hyperresponsive model assessed as cough latency at 10 mg/kg, ip qd administered for 7 days challenged 30 min post last dose on day 7 (reference value: 4.75 +/- 0.86 min); assay type: functional; settings: route intraperitoneal
[14] = test system: Cavia porcellus; test: Antiasthmatic activity in Cavia porcellus Hartley (guinea pig) ovalbumin-induced hyperresponsive model assessed as decrease in nitrate/nitrite level in per gram of lung tissue at 20 mg/kg, ip qd administered for 7 days challenged 30 min post last dose on day 7 by griess assay (reference value: 195.55 +/- 8.34 umol/g); assay type: functional; settings: route intraperitoneal
[15] = test system: Cavia porcellus; test: Antiasthmatic activity in Cavia porcellus Hartley (guinea pig) ovalbumin-induced hyperresponsive model assessed as reduction in eosinophil count in BAL at 20 mg/kg, ip qd administered for 7 days challenged 30 min post last dose on day 7; assay type: functional, organism-based; design: dose 20 mg/kg
[16] = test system: Cavia porcellus; test: Antiasthmatic activity in Cavia porcellus Hartley (guinea pig) ovalbumin-induced hyperresponsive model assessed as reduction in total lymphocyte count in BAL at 20 mg/kg, ip qd administered for 7 days challenged 30 min post last dose on day 7; assay type: functional, organism-based; design: dose 20 mg/kg
[17] = test system: Cavia porcellus; test: Antiasthmatic activity in Cavia porcellus Hartley (guinea pig) ovalbumin-induced hyperresponsive model assessed as reduction in TBARS level in per gram of lung tissue at 20 mg/kg, ip qd administered for 7 days challenged 30 min post last dose on day 7 (reference value: 0.291 +/- 0.039 nmol/g); assay type: functional; settings: route intraperitoneal
[18] = test system: Cavia porcellus; test: Antiasthmatic activity in Cavia porcellus Hartley (guinea pig) ovalbumin-induced hyperresponsive model assessed as increase in GSH level in BAL at 20 mg/kg, ip qd administered for 7 days challenged 30 min post last dose on day 7 (reference value: 28.95 +/- 3.66 umol/ml); assay type: functional; settings: route intraperitoneal
[19] = test system: Cavia porcellus; test: Antiasthmatic activity in Cavia porcellus Hartley (guinea pig) ovalbumin-induced hyperresponsive model assessed as reduction in TBARS level in BAL at 20 mg/kg, ip qd administered for 7 days challenged 30 min post last dose on day 7 (reference value: 0.471 +/- 0.08 nmol/ml); assay type: functional; settings: route intraperitoneal
[20] = test system: Cavia porcellus; test: Antiasthmatic activity in Cavia porcellus Hartley (guinea pig) ovalbumin-induced hyperresponsive model assessed as decrease in nitrate/nitrite level in BAL at 20 mg/kg, ip qd administered for 7 days challenged 30 min post last dose on day 7 by griess assay (reference value: 70.16 +/- 6.20 umol/ml); assay type: functional; settings: route intraperitoneal
[21] = test system: Cavia porcellus; test: Antiasthmatic activity in Cavia porcellus Hartley (guinea pig) ovalbumin-induced hyperresponsive model assessed as increase in GSH level in per gram of lung tissue at 20 mg/kg, ip qd administered for 7 days challenged 30 min post last dose on day 7 (reference value: 15.175 +/- 1.809 umol/g); assay type: functional; settings: route intraperitoneal
[22] = test system: Cavia porcellus; test: Antiasthmatic activity in Cavia porcellus Hartley (guinea pig) ovalbumin-induced hyperresponsive model assessed as cough latency at 20 mg/kg, ip qd administered for 7 days challenged 30 min post last dose on day 7 (reference value: 4.75 +/- 0.86 min); assay type: functional; settings: route intraperitoneal
[23] = test system: Bronchus smooth muscle; test: Inhibition of ovalbumin-induced constriction of Cavia porcellus (guinea pig) bronchial smooth muscle; assay type: functional

Nc1c(Br)cc(Br)cc1CN[C@H]1CC[C@H](O)CC1 [AMBROXOL]
Time [1]: 5.627 min
Activity [2]: Active
Activity [3]: 0.325 nmol/mL
Activity [4]: 49.075 µmol/mL
Activity [5]: 56.83 µmol/mL
Activity [6]: Active
Activity [7]: 134.67 µmol
Time [8]: 13.17 min
Activity [9]: Active
Activity [10]: Active
Activity [11]: 50.28 µmol
Activity [12]: 0.146 nmol

O=c1c2ccccc2nc2n1CCCCC2
Time [13]: 15.67 min
Activity [14]: 81.777 µmol
Activity [15]: Active
Activity [16]: Active
Activity [17]: 0.094 nmol
Activity [18]: 71.67 µmol/mL
Activity [19]: 0.199 nmol/mL
Activity [20]: 48.945 µmol/mL
Activity [21]: 66.67 µmol
Time [22]: 22.32 min
inhibition [23]: Dose-dependent effect
